# Counter-ions that a name gives are not always drawn. Square brackets hold non-standard residues; d marks the D form. Peptide text beside a SMILES is read from it. dPhe(4-Cl) = N[C@H](Cc1ccc(Cl)cc1)C(=O)O; d2Nal = N[C@H](Cc1ccc2ccccc2c1)C(=O)O; dCit = NC(=O)NCCC[C@@H](N)C(=O)O; d3Pal = N[C@H](Cc1cccnc1)C(=O)O
# Legend:
# [1] = tested on: naive C57B1/6 mice; assay: PPI in naive C57B1/6 mice; type: in vivo, mouse; conditions: naive animals, GnRH receptor antagonist alone
# Experimental: Prepulse Inhibition (PPI). PPI testing was performed within startle chambers purchased from Med Associates Inc (Med Associates, St. Albans, Vt., USA). […] Briefly, during a period of acclimation, a 65-dB background noise was applied for 5-min, and continued throughout the test session. All sessions for testing of PPI consisted of startle trials (pulse alone, 40-ms, 120-dB), prepulse trials (prepulse 20-ms, 69, 73, 78, or 81 dB followed by a (100-ms delay) pulse), and no-stimulus trials. All sessions were presented in pseudo-random order. The average time between trials was 15 s (range 12-30 s). PPI was calculated as: % PPI=100−{[(startle response for prepulse+pulse)/(startle response for pulse-alone)]×100}. […] Data from no-stimulation trials are not included in the results because the values obtained were negligible relative to values from trials containing startle stimuli.
# Neurotensin receptor antagonist SR142948 (TOCRIS COOKSON LTD) was used at 100 μg/kg 60 min before the PPI analysis.
# GnRH receptor antagonist Cetrorelix Acetate (Cetrotide™, Anaspec Inc. Fremont, Calif.). Control mice were administered the same volume of PBS.
# To examine whether Kp-10 can elevate PPI in naïve mice in a dose dependent manner, we analyzed PPI in C57B1/6 mice that were injected i.p with 100 μl of 1/10/100 μM Kp-10 (SEQ ID NO:3).
# [2] = tested on: C57B1/6 mice; assay: PPI in MK-801 pharmacological model of schizophrenia; type: in vivo, mouse; conditions: acute MK-801 0.1 mg/kg i.p., PPI 15 min later, vs naive mice
# Experimental: (§1) Prepulse Inhibition (PPI). PPI testing was performed within startle chambers purchased from Med Associates Inc (Med Associates, St. Albans, Vt., USA). PPI was analyzed as described previously (Kipnis et al., 2004). Briefly, during a period of acclimation, a 65-dB background noise was applied for 5-min, and continued throughout the test session. All sessions for testing of PPI consisted of startle trials (pulse alone, 40-ms, 120-dB), prepulse trials (prepulse 20-ms, 69, 73, 78, or 81 dB followed by a (100-ms delay) pulse), and no-stimulus trials. All sessions were presented in pseudo-random order. The average time between trials was 15 s (range 12-30 s). PPI was calculated as: % PPI=100−{[(startle response for prepulse+pulse)/(startle response for pulse-alone)]×100}. In all the experiments, there were no significant differences between groups in trials of startle reactivity to pulse alone, and in no-stimulation trials. Data from no-stimulation trials are not included in the results because the values obtained were negligible relative to values from trials containing startle stimuli. Reduced PPI is associated with schizophrenia-related behavior. […]
# To further establish the antipsychotic effect of Kp-10, we evaluated its ability to overcome psychotic symptoms induced by the psycho-mimetic agent, MK-801 (N-methyl-D-aspartate (NMDA) antagonist), which induces neurotransmitter imbalance. […]
# [3] = tested on: naive C57B1/6 mice; conditions: neurotensin receptor antagonist alone (Binder et al., 2001); cited from earlier work
# [4] = tested on: poly I:C rat model for schizophrenia; conditions: prophylactic treatment in peri-adolescence; cited from earlier work
# [5] = tested on: BDNF; assay: qPCR of BDNF transcripts in hippocampus; type: in vivo, mouse; conditions: mRNA, offspring of poly I:C treated dams treated at 8 weeks with Kp-10 or PBS
# Experimental: RNA purification, cDNA synthesis, reverse transcription PCR, and real-time quantitative PCR analysis. For RNA expression analysis, cells from whole hippocampi were extracted with TRI Reagent (MRC, Cincinnati, Ohio), and total cellular RNA was purified from the lysates using the RNeasy kit (Qiagen, Hilden, Germany). RNA (1 μg) was converted to cDNA using SuperScript II (Promega, Madison, Wis.). The amplification cycle was 95° C. for 5 s, 60° C. for 20 s, and 72° C. for 15 s.
# The following primers were used: […]
# To understand what is the mechanism behind the prophylactic treatment of Kp-10 we examined the expression of total brain-derived neurotrophic factor (BDNF) and its exon transcripts 1-4 according to Zajac et al. (2010). […] Recently, association between a BDNF variant and childhood-onset mood disorder was established (Strauss et al., 2005). Therefore, we studied mRNA expression of a few BDNF transcripts in the hippocampus of offspring of PBS treated dams (n=5) compared to offspring of poly I:C treated dams, which were treated at 8 weeks with either Kp-10 (n=6) or PBS (n=6) (Table 3). […] Treatment with Kp-10 at 8 weeks of age induced an increase in the expression of BDNF1 transcript to the normal level (Table 3(ii)). […] In addition, no significant difference was found between the groups in the expression of BDNF transcripts 3 and 4 (Table 3(iv and v)). […] The involvement of BDNF in schizophrenia and its effect on PPI levels are still a debate. Our observations of changes in expression of selective forms of BDNF might explain this apparent dichotomy.
# [6] = tested on: KiSS-1; assay: qPCR of KiSS-1 mRNA in hippocampus; type: in vivo, mouse; conditions: adult poly I:C affected mice vs age-matched controls
# [7] = tested on: Lewis rats; assay: PPI in offspring of poly I:C treated Lewis rats; type: in vivo; conditions: pregnant Lewis rats 4 mg/kg poly I:C, vs progeny of saline-treated animals
# Experimental: (§2) Poly I:C administration. Rats or mice were bred, and the first day after copulation was defined as day 1 of pregnancy. On gestation day 15, pregnant animals were injected intravenously with 4.0 mg/kg poly I:C (Sigma-Aldrich, Israel) dissolved in saline, or an equivalent volume of saline as a control. Both rats and mice received the same protocol of poly I:C administration.
# as §1, with “trials.” for “trials. Data from no-stimulation trials are not included in the results because the values obtained were negligible relative to values from trials containing startle stimuli. Reduced PPI is associated with schizophrenia-related behavior.”
# [8] = tested on: lymphocytes; assay: Lymphocyte proliferation assay after MBP68-86 vaccination; type: cell-based, Lewis rats; conditions: offspring after prenatal poly I:C treatment
# [9] = tested on: offspring of poly I:C treated dams; assay: PPI in offspring of poly I:C treated dams (mouse model for schizophrenia); type: in vivo; conditions: pregnant C57B1/6 mice 4 mg/kg poly I:C, vs saline
# Experimental: as §2
# Prepulse Inhibition (PPI). PPI testing was performed within startle chambers purchased from Med Associates Inc (Med Associates, St. Albans, Vt., USA). PPI was analyzed as described previously (Kipnis et al., 2004). Briefly, during a period of acclimation, a 65-dB background noise was applied for 5-min, and continued throughout the test session. All sessions for testing of PPI consisted of startle trials (pulse alone, 40-ms, 120-dB), prepulse trials (prepulse 20-ms, 69, 73, 78, or 81 dB followed by a (100-ms delay) pulse), and no-stimulus trials. All sessions were presented in pseudo-random order. The average time between trials was 15 s (range 12-30 s). PPI was calculated as: % PPI=100−{[(startle response for prepulse+pulse)/(startle response for pulse-alone)]×100}. In all the experiments, there were no significant differences between groups in trials of startle reactivity to pulse alone, and in no-stimulation trials. Data from no-stimulation trials are not included in the results because the values obtained were negligible relative to values from trials containing startle stimuli. Reduced PPI is associated with schizophrenia-related behavior. The same protocol was used in mice and rats (FIG. 1A).
# Kisspeptin treatment. Mice were injected i.p with 100 μl of 1/10/100 μM Kp-10 peptide (SEQ ID NO:3) (synthesized at the Weizmann Institute of Science, or Sigma-Aldrich, Israel) dissolved in PBS, 30 minutes before the PPI analysis.
# The ability of a normal lymphocyte population to reverse abnormal PPI behavior in immune deficient mice, encouraged us to test whether immune cells derived from the offspring of poly I:C treated dams would reverse the abnormal behavior of SCID mice in the PPI test. […]
# [10] = tested on: Lewis rats; assay: Experimental autoimmune encephalomyelitis (EAE); type: in vivo; conditions: female offspring after prenatal poly I:C treatment, MBP68-86 immunization
compound,measurement,setting,value
"CC(=O)N[C@H](Cc1ccc2ccccc2c1)C(=O)N[C@H](Cc1ccc(Cl)cc1)C(=O)N[C@H](Cc1cccnc1)C(=O)N[C@@H](CO)C(=O)N[C@@H](Cc1ccc(O)cc1)C(=O)N[C@H](CCCNC(N)=O)C(=O)N[C@@H](CC(C)C)C(=O)N[C@@H](CCCNC(=N)N)C(=O)N1CCC[C@H]1C(=O)N[C@H](C)C(N)=O [Cetrotide™, Cetrorelix Acetate, reference compound] (Ac-[d2Nal][dPhe(4-Cl)][d3Pal]SY[dCit]LRP[dA]-NH2)",PPI,[1],did not affect PPI
"C[C@]12N[C@H](Cc3ccccc31)c1ccccc12 [MK-801, [+]-5-methyl-10,11-dihydro-5H-dibenzo-[a,d]-cyclohepten-5,10-imine hydrogen maleate, reference compound]",PPI response,[2],significantly reduced PPI response
COc1cccc(OC)c1-c1cc(C(=O)NC2(C(=O)O)C3CC4CC(C3)CC2C4)nn1-c1ccc(C(=O)N(C)CCCN(C)C)cc1C(C)C (centres unmarked) [NTA],PPI levels,[3],does not affect PPI levels
Cc1nc2n(c(=O)c1CCN1CCC(c3noc4cc(F)ccc34)CC1)CCCC2 [Risperidone],onset of psychotic symptoms and abnormal brain development,[4],prevented the onset psychotic symptoms and abnormal brain development
polyriboinosinic-polyribocytidylic acid [poly I:C],Expression of BDNF1 transcript,[5],1.2 ± 0.3
same,Expression of BDNF2 transcript,[5],5.7 ± 0.1
same,Expression of BDNF3 transcript,[5],6.2 ± 0.9
same,Expression of BDNF4 transcript,[5],7.4 ± 1
same,Expression of BDNF transcript (total BDNF),[5],1.7 ± 0.6
same,KiSS-1 mRNA levels in hippocampus,[6],reduction in KiSS-1 mRNA levels
same,PPI in adult offspring,[7],reduction in PPI
same,Lymphocyte proliferation (PI ± SD),[8]; antigen Con-A,126 ± 67
same,Lymphocyte proliferation (PI ± SD),[8]; antigen MBP68-86,1.0 ± 0.11
same,Lymphocyte proliferation (PI ± SD),[8]; antigen Ova,1.2 ± 0.09
same,PPI in adult offspring,[9],reduced PPI
same,Duration of EAE (day ± SEM),[10],5.08 ± 0.3 days
same,Onset of EAE (day ± SEM),[10],11.17 ± 0.2 days
